Measurements taken from patent US20180140609A1, “USE OF (4-HYDROXY-2-METHYL-1,1-DIOXIDO-2H-BENZO[E][1,2]THIAZINE-3-YL)(NAPHTHALENE-2-YL) METHANONE IN THE PREVENTION AND/OR TREATMENT OF NON-ALCOHOLIC STEATOHEPATITIS” (PIERRE FABRE MEDICAMENT, priority 2015, published 2018).
Where two headings read alike, the source gives them in different places.

How the values were obtained:
human 11β-HSD type 1 [1] = target: T1, human 11β-HSD type 1 (Homo sapiens, UniProt P28845); test: Bioactivity of inguinal white adipose tissue after single oral administration in C57BL/6N mice, read as inhibition of human 11β-HSD type 1 (SPA); format: in vivo; settings: mouse inguinal white adipose tissue extract
Description: Four hours post-administration, the mice are euthanized and inguinal white adipose tissue is taken and frozen at −70° C. until the day of bioanalyses. The white adipose tissue is homogenized in liquid nitrogen and then treated with acetonitrile (1 ml of distilled water for 4 ml of acetonitrile and 200 mg of inguinal white adipose tissue) to extract soluble substances. The acetonitrile fraction is collected, then dried, and the residue is dissolved in 1 ml of DMSO for 300 mg of white adipose tissue.
Compounds tested: the same as those of Example 2.

human 11β-HSD 1 = target: T2, human 11β-HSD 1 (Homo sapiens, UniProt P28845); test: Inhibition of human 11β-HSD 1 in primary human differentiated adipocytes in culture (cortisone to cortisol, SPA); format: cell-based
T2 construct: evaluated on primary human adipocytes in culture (ZenBio); host or cells: primary human preadipocytes differentiated into adipocytes, from three donors
Description: Inhibition of human 11β-HSD 1 enzyme is evaluated on primary human adipocytes in culture (ZenBio).
Preadipocytes are thawed and their viability is confirmed. The preadipocytes are then placed in 96-well microplates in a specific preadipocyte medium (PM-1) provided by ZenBio; the plates are incubated at 37° C. with 5% CO2. One day or more after the cells are confluent, PM-1 is replaced with a more specific differentiation medium (DM), also provided by ZenBio, containing isobutylmethylxanthine, insulin, dexamethasone and a PPAR agonist. The cells will differentiate into adipocytes after a minimum of 7 days. Next, the mature adipocytes are maintained for 4 to 6 days in adipocyte maintenance medium (AM). Then, in the presence of serum treated with dextran-coated charcoal, the cells are placed in steroid-deficient conditions for 48 h, and are pretreated with the inhibitors to be tested or their carrier (0.1% DMSO) for 1 h at 37° C. before the pulse with cortisone. Tritiated cortisone is added for 4 hours to reach a final concentration of 20 nM. The cortisol concentration is quantified from the cell supernatant using SPA technology. EC50 values are obtained with the SigmaPlot v.11 software, four parameter logistic equation; the reported values come from three different experiments carried out on three different donors.

[2] = tested on: 11β-HSD type 1 of adipose tissue; test: Ex vivo activity of 11β-HSD type 1 of adipose tissue after single oral administration to cynomolgus monkeys; format: in vivo; settings: 20 mg/kg single oral, 4 hours, mesenteric and subcutaneous adipose tissue
Description: (§1) Five adult male cynomolgus monkeys (same animals used in studies 1 and 2 of Example 4) are fasted the evening before the experiment. Blood samples are taken right before administration of Compound 1K (dose of 20 mg/kg, n=3) or administration of the vehicle (0.5% methylcellulose in water, n=2) then 4 hours after oral administration. The animals are euthanized, necropsy is performed on the monkeys, samples of plasma and of target tissues are taken and then frozen in liquid nitrogen and stored at −70° C. until ex vivo analyses. To test the ex vivo activity of 11β-HSD type 1, 5-10 mg liver samples were incubated in duplicate for 30 minutes at 37° C. with 17 nM [1,2-^3H] cortisone in 50 mM HEPES (pH 7.4), 100 mM KCl, 5 mM NaCl, 2 mM MgCl2. Plasma levels were measured by the LC-MS/MS analytical method. The liver samples were homogenized by sonication and extracted with acetonitrile (1 ml of distilled water, 4 ml of acetonitrile for 200 mg of tissue). Tissue levels of the compounds were measured by the LC-MS/MS analytical method.
The protocol is the same as that described in Example 5, except that the tissue samples are from mesenteric, subcutaneous and inguinal adipose tissue.

[3] = Plasma exposure in cynomolgus monkeys (prednisone challenge studies, LC-MS/MS); format: in vivo; settings: same dose of 20 mg/kg
Description: (§2) Briefly, the study is carried out in naive adult male cynomolgus monkeys fasted overnight. The 11β-HSD type 1 inhibitor or its vehicle (0.5% methylcellulose in water) is administered via nasogastric intubation. Two hours later, a challenge with orally administered prednisone (10 mg/kg) is performed and blood samples are taken regularly for 24 hours. These samples are centrifuged to obtain plasma and immediately frozen at −70° C. until bioanalysis. Plasma levels of prednisone, prednisolone and 11β-HSD type 1 inhibitors are measured by LC-MS/MS analytical methods.
(§3) The study is carried out over a period of 10 weeks. Profiles of plasma concentration as a function of time and areas under the curve are calculated using the trapezoidal method for all parameters.

human 11β-HSD type 1 [4] = target: T1, human 11β-HSD type 1; test: Plasma bioactivity after single oral administration in C57BL/6N mice, read as inhibition of human 11β-HSD type 1 (SPA); format: in vivo; settings: for inhibition at 2.5 mg/kg / inhibition at 10 mg/kg: po, mice, table with plasma levels; for inhibition at 2.5 mg/kg: 2.5 mg/kg oral; for inhibition at 10 mg/kg: 10 mg/kg oral
Description: (§4) The evaluation is made in on 4- to 6-week-old non-fasted male C57BL/6N strain mice. The compounds to be tested or the vehicle (0.5% methylcellulose in water, at 10 ml/kg) are administered orally; n=3 mice per treatment.
(§5) Blood samples are collected 1 h and 4 h after administration; the tubes are centrifuged to obtain plasma and frozen at −70° C. until bioanalysis. Plasma bioactivity (2% final volume) is analyzed by using the inhibition of human 11β-HSD type 1 as a detection system (SPA technology) for each compound at each dose tested. Percent inhibition (versus mice treated with carrier) is calculated for each dose.

[5] = Clinical and behavioral signs in cynomolgus monkeys during the prednisone challenge studies; format: in vivo; settings: study no. 2, 20, 40 and 80 mg/kg, even at 80 mg/kg
Description: as §2, §3

[6] = Plasma level by LC/MS after single oral administration in C57BL/6N mice; format: in vivo; settings: parent molecule by LC/MS
Description: as §4, §5
Compound 1 is detected in the plasma of the treated mice and inhibits 11β-HSD type 1 as of 0.63 mg/kg. LC/MS analyses of plasma samples from the animals treated with Compound 1K show a much higher plasma level of the parent molecule than that found for Compound 1.

hepatic 11β-HSD type 1 = test: Ex vivo activity of hepatic 11β-HSD type 1 after single oral administration in cynomolgus monkeys; settings: 20 mg/kg single oral, liver 4 hours after administration
Description: as §1

[7] = 1 h, read-out: Plasma 1 h % inh.
[8] = 4 h, read-out: Plasma 4 h % inh.

T1 sequence (P28845 whole entry): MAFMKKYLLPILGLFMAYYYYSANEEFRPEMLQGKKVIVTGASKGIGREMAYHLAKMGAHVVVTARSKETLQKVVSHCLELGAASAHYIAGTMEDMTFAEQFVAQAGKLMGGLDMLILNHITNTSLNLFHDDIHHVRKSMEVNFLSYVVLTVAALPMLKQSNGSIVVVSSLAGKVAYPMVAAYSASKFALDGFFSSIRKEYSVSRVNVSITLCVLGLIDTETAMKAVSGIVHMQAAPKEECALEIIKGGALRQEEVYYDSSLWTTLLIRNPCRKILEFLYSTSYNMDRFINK
T2 sequence (P28845 whole entry): as above

In the case of `CN1C(C(=O)c2ccc3ccccc3c2)=C([O-])c2ccccc2S1(=O)=O.[K+]` [Compound 1K, potassium 3-(2-naphthoyl)-2-methyl-2H-benzo[e][1,2]thiazin-4-olate 1,1-dioxide], the “% inhibition after 4 h” value (human 11β-HSD type 1 [1]; 4 h after 0.63 mg/kg oral) is reported as 21%, the “% inhibition after 4 h” value (human 11β-HSD type 1 [1]; 4 h after 2.5 mg/kg oral) is reported as 41% and the “% inhibition after 4 h” value (human 11β-HSD type 1 [1]; 4 h after 10 mg/kg oral) is reported as 70%. For the same compound, the “Emax (% inhibition at 10 μM)” value (human 11β-HSD 1; 10 μM) was 97 % inhibition, the EC50 (human 11β-HSD 1; 1 h pretreatment, 20 nM tritiated cortisone 4 h, three donors) was 58 nM and the “inhibition of ex vivo activity of 11β-HSD type 1 of peripheral and visceral adipose tissue” value [2] was “complete inhibition”. The “increase of plasma exposure versus Compound 1” value [3] was about 8 fold, the “% inhibition at 1 h” value (human 11β-HSD type 1 [4]; mouse plasma (2% final volume), 1 h after 0.63 mg/kg oral) was 47% and the “% inhibition at 1 h” value (human 11β-HSD type 1 [4]; mouse plasma, 1 h after 2.5 mg/kg oral) was 78%. For the same compound, the “% inhibition at 1 h” value (human 11β-HSD type 1 [4]; mouse plasma, 1 h after 10 mg/kg oral) was 91%, the “% inhibition at 4 h” value (human 11β-HSD type 1 [4]; mouse plasma, 4 h after 0.63 mg/kg oral) was 36% and the “% inhibition at 4 h” value (human 11β-HSD type 1 [4]; mouse plasma, 4 h after 2.5 mg/kg oral) was 67%. For the same compound, the “% inhibition at 4 h” value (human 11β-HSD type 1 [4]; mouse plasma, 4 h after 10 mg/kg oral) was 86%, the inhibition at 2.5 mg/kg (human 11β-HSD type 1 [4]; [7]) was 75 ± 4% and the inhibition at 2.5 mg/kg (human 11β-HSD type 1 [4]; [8]) was 63 ± 6%. The inhibition at 10 mg/kg (human 11β-HSD type 1 [4]; [7]) was 89 ± 1%, the inhibition at 10 mg/kg (human 11β-HSD type 1 [4]; [8]) was 85 ± 2% and the “clinical or behavioral sign” value [5] was “No particular clinical or behavioral sign”. For the same compound, the “Plasma 1 h” value ([6]; 10 mg/kg oral, 1 h) was 13900 ± 2117 ng/mL, the concentration at 1 h ([6]; male, C57BL/6N, mouse, plasma, po, 2.5 mg/kg, 2.5 mg/kg oral, 1 h) was 4240 ± 1260 ng/mL and the concentration at 4 h ([6]; male, C57BL/6N, mouse, plasma, po, 2.5 mg/kg, 2.5 mg/kg oral) was 3470 ± 2430 ng/mL. The concentration at 4 h ([6]; male, C57BL/6N, mouse, plasma, po, 10 mg/kg, 10 mg/kg oral) was 6810 ± 674 ng/mL and the “inhibition of the ex vivo activity of hepatic 11β-HSD type 1” value (hepatic 11β-HSD type 1) was 68%.
